Values of other authors in article PMC5891061, “Electrophysiological mechanisms of vandetanib-induced cardiotoxicity: Comparison of action potentials in rabbit Purkinje fibers and pluripotent stem cell-derived cardiomyocytes” (PLoS ONE, 2018).

Key:
[1] = biological target: INa in hiPSC-CMs (Homo sapiens, UniProt Q14524); conditions: hiPSC-CMs compared with HEK293 cells; cited from earlier work
[2] = system: hiPSC-CMs; conditions: cited from earlier work

INa in hiPSC-CMs, sequence (Q14524 212-1075 limits assumed): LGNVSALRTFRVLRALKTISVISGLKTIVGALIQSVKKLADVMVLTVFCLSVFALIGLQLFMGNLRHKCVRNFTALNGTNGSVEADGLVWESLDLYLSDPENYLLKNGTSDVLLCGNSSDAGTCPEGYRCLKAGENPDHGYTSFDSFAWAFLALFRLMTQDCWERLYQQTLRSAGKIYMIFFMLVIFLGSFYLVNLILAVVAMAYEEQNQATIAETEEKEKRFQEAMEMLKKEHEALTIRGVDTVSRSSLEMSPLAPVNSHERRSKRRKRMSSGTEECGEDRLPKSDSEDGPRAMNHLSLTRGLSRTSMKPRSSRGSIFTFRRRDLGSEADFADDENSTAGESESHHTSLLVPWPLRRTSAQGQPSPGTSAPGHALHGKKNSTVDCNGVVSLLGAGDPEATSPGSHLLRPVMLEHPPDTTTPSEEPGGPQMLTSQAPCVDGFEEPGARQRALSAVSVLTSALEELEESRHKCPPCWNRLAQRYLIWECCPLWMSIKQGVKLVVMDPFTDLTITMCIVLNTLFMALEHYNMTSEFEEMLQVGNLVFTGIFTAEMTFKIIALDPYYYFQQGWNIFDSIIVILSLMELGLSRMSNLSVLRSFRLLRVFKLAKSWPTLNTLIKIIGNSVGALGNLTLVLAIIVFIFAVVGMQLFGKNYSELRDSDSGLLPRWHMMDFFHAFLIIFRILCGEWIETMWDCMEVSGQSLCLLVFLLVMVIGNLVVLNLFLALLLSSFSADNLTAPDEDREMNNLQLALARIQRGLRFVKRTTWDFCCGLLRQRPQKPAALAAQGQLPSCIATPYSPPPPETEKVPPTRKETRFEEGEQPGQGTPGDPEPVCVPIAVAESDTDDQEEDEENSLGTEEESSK
INa in hiPSC-CMs, sequence (Q14524 1131-2016 limits assumed): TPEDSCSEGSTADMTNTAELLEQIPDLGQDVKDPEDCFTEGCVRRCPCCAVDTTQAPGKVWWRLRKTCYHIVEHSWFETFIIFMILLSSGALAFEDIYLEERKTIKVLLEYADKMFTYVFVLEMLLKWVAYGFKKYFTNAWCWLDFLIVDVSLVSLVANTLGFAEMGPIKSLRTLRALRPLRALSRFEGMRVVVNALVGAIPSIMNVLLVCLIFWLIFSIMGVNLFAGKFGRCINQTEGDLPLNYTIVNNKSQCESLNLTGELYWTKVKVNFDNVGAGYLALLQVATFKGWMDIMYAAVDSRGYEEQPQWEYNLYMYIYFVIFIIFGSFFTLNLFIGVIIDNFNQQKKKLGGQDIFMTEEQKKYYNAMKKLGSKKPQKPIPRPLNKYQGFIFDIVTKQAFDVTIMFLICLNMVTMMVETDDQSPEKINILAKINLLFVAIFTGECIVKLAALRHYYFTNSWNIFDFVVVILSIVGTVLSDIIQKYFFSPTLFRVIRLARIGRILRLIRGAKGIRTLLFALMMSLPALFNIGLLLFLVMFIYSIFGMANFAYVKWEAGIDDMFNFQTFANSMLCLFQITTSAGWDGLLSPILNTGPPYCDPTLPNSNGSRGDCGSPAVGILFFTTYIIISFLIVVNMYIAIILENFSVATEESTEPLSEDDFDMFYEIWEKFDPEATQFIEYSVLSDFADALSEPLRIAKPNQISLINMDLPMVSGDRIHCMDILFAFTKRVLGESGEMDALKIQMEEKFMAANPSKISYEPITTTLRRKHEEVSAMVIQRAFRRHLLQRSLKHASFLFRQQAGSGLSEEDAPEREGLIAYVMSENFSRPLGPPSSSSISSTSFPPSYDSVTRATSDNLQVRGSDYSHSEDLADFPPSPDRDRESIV

## CCc1nn(CCCN2CCN(c3cccc(Cl)c3)CC2)c(=O)n1CCOc1ccccc1 [nefazodone]
[1]
  Block of INa, sensitivity: greater sensitivity than in HEK293 cells
[2]
  Effect on Vmax: significantly decreased
